The values below come from patent US20240150293A1, “SPIROCYCLOHEXANE DERIVATIVES, PHARMACEUTICAL COMPOSITIONS CONTAINING THEM AND THEIR USES AS ANTI-APOPTOTIC INHIBITORS” (LES LABORATOIRES SERVIER, priority 2021, published 2024).

For orientation: Ki means a dissociation constant, usually derived from enzyme kinetics or from competition with a known ligand.

The target in this test is Mcl-1 protein (UniProtKB Q07820) (Homo sapiens (Human), UniProt Q07820). Nature of the test: Inhibition of Mcl-1 by the fluorescence polarisation assay (Example A, Method A). Format: binding. The settings on record: fluorescence polarization assay. The method in brief: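 Protein (5 nM) and fluorescein-tagged peptide tracer (1 nM) incubated with 11-point compound series for 2 h at room temperature in HEPES/NaCl/Tween 20 buffer, pH 7.4, 5% DMSO. Displacement read as decrease in polarisation; IC50 fitted by 4-parameter logistic, converted to Ki (cKi or eKi).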
Mcl-1 protein, sequence (Q07820 whole entry): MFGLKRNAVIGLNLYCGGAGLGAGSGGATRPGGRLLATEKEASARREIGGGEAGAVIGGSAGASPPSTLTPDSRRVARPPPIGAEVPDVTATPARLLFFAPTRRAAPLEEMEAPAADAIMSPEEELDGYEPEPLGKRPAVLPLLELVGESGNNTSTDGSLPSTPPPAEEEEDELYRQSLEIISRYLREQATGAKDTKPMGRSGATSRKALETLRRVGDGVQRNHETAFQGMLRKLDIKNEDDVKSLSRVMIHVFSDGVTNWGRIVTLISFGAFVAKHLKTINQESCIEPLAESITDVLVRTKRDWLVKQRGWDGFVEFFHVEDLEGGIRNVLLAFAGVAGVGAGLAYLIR
In general terms: In fluorescence polarisation assays a small probe gives low polarisation when free and higher when bound to something large.
As to `Cn1cc(C2Cc3ccccc3[C@]23CC[C@@](Nc2cccc(Br)c2)(C(=O)O)CC3)cn1` (stereo partly drawn) [Example 212, (1r,4r)-4-(3-bromoanilino)-2′-(1-methyl-1H-pyrazol-4-yl)-2′,3′-dihydrospiro[cyclohexane-1,1′-indene]-4-carboxylic acid], the Ki worked out at 9.47 µM.

`Cc1cc(C2=Cc3ccccc3[C@]23CC[C@@](Nc2cccc(Cl)c2)(C(=O)O)CC3)cs1` [Example 318, (1s,4s)-4-(3-chloroanilino)-2′-(5-methylthiophen-3-yl)spiro[cyclohexane-1,1′-indene]-4-carboxylic acid]: the inhibition constant (Ki) amounted to 1.91 µM.

On to `O=C(O)[C@]1(Nc2cccc(Cl)c2)CC[C@@]2(CC1)c1ccccc1CC2[C@H]1C[C@@H]1COc1ccccc1` (relative stereo) [Example 110, (1r,4r)-4-(3-chloroanilino)-2′-[(1R*,2S*)-2-(phenoxymethyl)cyclopropyl]-2′,3′-dihydrospiro[cyclohexane-1,1′-indene]-4-carboxylic acid], for which the inhibition constant (Ki) amounted to 8.45 µM.

Regarding `CC[C@H]1c2ccccc2[C@]2(CC[C@@](Nc3cccc(Cl)c3)(C(=O)O)CC2)[C@H]1C` (racemic) [Example 207, (1r,2′RS,3′SR,4r)-4-(3-chloroanilino)-3′-ethyl-2′-methyl-2′,3′-dihydrospiro[cyclohexane-1,1′-indene]-4-carboxylic acid], the Ki turned out to be 4.66 µM.

On to `O=C(O)[C@]1(Nc2cccc(Br)c2)CC[C@@]2(CC1)C(=O)N(Cc1ccccc1)c1ccccc12` [Example 13, (1r,4r)-1′-benzyl-4-(3-bromoanilino)-2′-oxo-1′,2′-dihydrospiro[cyclohexane-1,3′-indole]-4-carboxylic acid], for which the inhibitory constant (Ki) stood at 7.08 µM.

`O=C(O)[C@]1(Nc2cccc(Br)c2)CC[C@@]2(CC1)c1ccccc1CC2CCc1cccnc1` (stereo partly drawn) [Example 164, (1r,4r)-4-(3-bromoanilino)-2′-[2-(pyridin-3-yl)ethyl]-2′,3′-dihydrospiro[cyclohexane-1,1′-indene]-4-carboxylic acid]: the inhibitory constant (Ki) turned out to be 0.6 µM.

As for `COc1ccc(C2=Cc3ccccc3[C@]23CC[C@](Nc2cccc(Cl)c2)(C(=O)O)CC3)cc1C` [Example 224, (1r,4r)-4-(3-chloroanilino)-2′-(4-methoxy-3-methylphenyl)spiro[cyclohexane-1,1′-indene]-4-carboxylic acid], the Ki was 22.3 µM.

In the case of `CN1c2ccc(I)cc2[C@]2(CC[C@](Nc3cccc(Br)c3)(C(=O)O)CC2)C1=O` [Example 5, (1r,4r)-4-(3-bromoanilino)-5′-iodo-1′-methyl-2′-oxo-1′,2′-dihydrospiro[cyclohexane-1,3′-indole]-4-carboxylic acid], the inhibitory constant (Ki) was 22 µM.

On to `O=C(O)[C@]1(Nc2cccc(Cl)c2)CC[C@]2(CC1)C(c1cccc(Cl)c1)=Cc1ccccc12` [Example 334, (1s,4s)-4-(3-chloroanilino)-2′-(3-chlorophenyl)spiro[cyclohexane-1,1′-indene]-4-carboxylic acid], for which the inhibitory constant (Ki) stood at 2 µM.

As to `O=C(O)[C@]1(Nc2cccc(Cl)c2)CC[C@@]2(CC1)c1ccccc1CC2c1cccc(Cl)c1` (single isomer, unassigned) [Example 343, (1r,4r)-4-(3-chloroanilino)-2′-(3-chlorophenyl)-2′,3′-dihydrospiro[cyclohexane-1,1′-indene]-4-carboxylic acid], the Ki turned out to be 0.978 µM.

Turning to `O=C(O)[C@]1(Nc2cccc(Cl)c2)CC[C@]2(CC1)C(C1=CCCCC1)=Cc1ccccc12` [Example 275, (1r,4r)-4-(3-chloroanilino)-2′-(cyclohex-1-en-1-yl)spiro[cyclohexane-1,1′-indene]-4-carboxylic acid], the Ki worked out at 10.1 µM.

With `Cc1cnccc1OCCCOC1=Cc2ccccc2[C@]12CC[C@@](Nc1cccc(Br)c1)(C(=O)O)CC2` [Example 193, (1s,4s)-4-(3-bromoanilino)-2′-{3-[(3-methylpyridin-4-yl)oxy]propoxy}spiro[cyclohexane-1,1′-indene]-4-carboxylic acid], the Ki came to 0.531 µM.

Consider `CC1=C(C)[C@]2(CC[C@@](Nc3cccc(Br)c3)(C(=O)O)CC2)c2ccccc21` [Example 203, (1s,4s)-4-(3-bromoanilino)-2′,3′-dimethylspiro[cyclohexane-1,1′-indene]-4-carboxylic acid], for which the inhibition constant (Ki) stood at 40.1 µM.

`Cc1ccc(C2=Cc3ccccc3C23CCC(Nc2cccc(Br)c2)(C(=O)O)CC3)cc1Cl` (single isomer, unassigned) [Example 234, 4-(3-bromoanilino)-2′-(3-chloro-4-methylphenyl)spiro[cyclohexane-1,1′-indene]-4-carboxylic acid]: the inhibition constant (Ki) was determined as 115 µM.

For the molecule `O=C(O)[C@]1(Nc2cccc(Cl)c2)CC[C@]2(CC1)C(CC(COc1ccnc3ccsc13)COc1ccnc3ccsc13)=Cc1ccccc12` [Example 492, (1r,4r)-4-(3-chloroanilino)-2′-(3-[(thieno[3,2-b]pyridin-7-yl)oxy]-2-{[(thieno[3,2-b]pyridin-7-yl)oxy]methyl}propyl)spiro[cyclohexane-1,1′-indene]-4-carboxylic acid], the Ki was 0.0937 µM.

For `COc1ccc(C)c(C2Cc3ccccc3[C@]23CC[C@@](Nc2cccc(Cl)c2)(C(=O)O)CC3)c1` (single isomer, unassigned) [Example 270, (1r,4r)-4-(3-chloroanilino)-2′-(5-methoxy-2-methylphenyl)-2′,3′-dihydrospiro[cyclohexane-1,1′-indene]-4-carboxylic acid], the inhibitory constant (Ki) came out at 3.96 µM.

`COc1ccc(C2Cc3ccccc3[C@]23CC[C@@](Nc2cccc(Cl)c2)(C(=O)O)CC3)cc1C` (single isomer, unassigned) [Example 242, (1r,4r)-4-(3-chloroanilino)-2′-(4-methoxy-3-methylphenyl)-2′,3′-dihydrospiro[cyclohexane-1,1′-indene]-4-carboxylic acid]: the Ki is 1.21 µM.

Regarding `Cc1ccc2c(c1)[C@]1(CC[C@](Nc3cccc(Br)c3)(C(=O)O)CC1)C(=O)N2C` [Example 7, (1r,4r)-4-(3-bromoanilino)-1′,5′-dimethyl-2′-oxo-1′,2′-dihydrospiro[cyclohexane-1,3′-indole]-4-carboxylic acid], the Ki was 23.8 µM.

With `Cc1nc2c(c(OCCCC3Cc4ccccc4[C@]34CC[C@@](Nc3cccc(Cl)c3)(C(=O)O)CC4)n1)C(C)CC2` (stereo partly drawn) [Example 468, (1r,4r)-4-(3-chloroanilino)-2′-{3-[(2,5-dimethyl-6,7-dihydro-5H-cyclopenta[d]pyrimidin-4-yl)oxy]propyl}-2′,3′-dihydrospiro[cyclohexane-1,1′-indene]-4-carboxylic acid], the inhibition constant (Ki) came to 0.234 µM.

With `O=C(O)[C@]1(Nc2cccc(Cl)c2)CC[C@]2(CC1)C(c1cc3cc(-c4ccncc4)ccc3o1)=Cc1ccccc12` [Example 375, (1s,4s)-4-(3-chloroanilino)-2′-[5-(pyridin-4-yl)-1-benzofuran-2-yl]spiro[cyclohexane-1,1′-indene]-4-carboxylic acid], the Ki came out at 4.79 µM.

With `Cc1ccc(CCOCC2=Cc3ccccc3[C@]23CC[C@@](Nc2cccc(Cl)c2)(C(=O)O)CC3)cc1` [Example 416, (1s,4s)-4-(3-chloroanilino)-2′-{[2-(4-methylphenyl)ethoxy]methyl}spiro[cyclohexane-1,1′-indene]-4-carboxylic acid], the inhibitory constant (Ki) was determined as 0.623 µM.
